Experimental findings from the Deep4Chem optical property database are described below.

This data set can be described thus: photoluminescence quantum yield (fraction); solvent given as SMILES.

Molecules are shown by their SMILES.

`O=c1c2ccc(-c3ccc(N(c4ccccc4)c4ccccc4)cc3)cc2sc2cc(-c3ccc(N(c4ccccc4)c4ccccc4)cc3)ccc12` displayed a photoluminescence quantum yield (in c1ccc2c(c1)c1ccccc1n2-c1ccc(-c2ccc(-n3c4ccccc4c4ccccc43)cc2)cc1) of 0.35. As to `C=Cc1ccc(OC)c(OC)c1`, the photoluminescence quantum yield (in C1CCCCC1) is 0.32 and the photoluminescence quantum yield (in CC#N) was 0.29. Take `CC(C)(C)c1ccc2c(c1)c1cc(C(C)(C)C)ccc1n2-c1cc(C(=O)c2ccccn2)cc(-n2c3ccc(C(C)(C)C)cc3c3cc(C(C)(C)C)ccc32)c1`: the photoluminescence quantum yield by setting is: (in Cc1ccccc1) 0.072; (in c1cc(-c2cccc(-n3c4ccccc4c4ccccc43)c2)cc(-n2c3ccccc3c3ccccc32)c1) 0.96. Consider `COc1ccc(-c2oc3cccc4c5c(-c6ccc(OC)cc6)/c(=N/S(=O)(=O)C(F)(F)F)oc6cccc(c2c34)c65)cc1`, for which the photoluminescence quantum yield (in ClC(Cl)Cl) worked out at 0.96. Still for that read-out and setting: the same measure for `F[B-]1(F)n2c(ccc2-c2nc3ccccc3s2)C(c2ccccc2)=C2C=CC(c3nc4ccccc4s3)=[N+]21`: 0.86. As for `c1cc2ccc1CCCc1cc3c(cc1CCCc1ccc(c4nsnc14)CCC3)CCC2`, the photoluminescence quantum yield (in C1CCCCC1) was found to be 0.12, the photoluminescence quantum yield (in CC#N) worked out at 0.02 and the photoluminescence quantum yield (in ClC(Cl)Cl) was determined as 0.08.

`COC(=O)C(NC(=O)OC(C)(C)C)c1ccc2oc(-c3ccc(OC(=O)c4ccccc4)cc3OC(=O)c3ccccc3)nc2c1` (stereo unspecified) displayed a photoluminescence quantum yield (in CC1CCCCC1) of 0.003, a photoluminescence quantum yield (in CC#N) of 0.003 and a photoluminescence quantum yield (in CO) of 0.002.

Where the note is “in CC#N”, `C[C@@]12SC(Cl)=CC1=c1nc(-c3ccc(Cl)cc3)[nH]c1=C1C=C(Cl)S[C@]12C` yielded a photoluminescence quantum yield of 0.009.

Regarding `C[Si](C)(C)[Si](C)(C)c1cccc2cc3ccccc3cc12`, the photoluminescence quantum yield runs as follows: (in C1CCCCC1) 0.38; (in CC#N) 0.16. `O=CC1=C(c2ccc(-c3cccs3)s2)CC1` gave a photoluminescence quantum yield (in CCO) of 0.32. Take `CN(C)c1ccc(C2=Nc3scc(-c4ccc(N(C)C)cc4)[n+]3[B-](F)(F)O2)cc1`: the photoluminescence quantum yield was determined as 0.01 (in C1CCOC1), 0 (in CC#N), 0.66 (in Cc1ccccc1) and 0.04 (in ClCCl). Molecule `CCOC(=O)c1sc(-c2ccc(-c3cc(-c4ccc(C(C)(C)C)cc4)c(C(=O)OCC)s3)s2)cc1-c1ccc(C(C)(C)C)cc1` had a photoluminescence quantum yield (in ClCCl) of 0.15. Consider `FC(F)(F)c1ccc(-n2c(-c3ccc(N(c4ccc(-c5ccc(N(c6ccc(-c7nc8c9ccccc9c9ccccc9c8n7-c7ccc(C(F)(F)F)cc7)cc6)c6ccc(-c7nc8c9ccccc9c9ccccc9c8n7-c7ccc(C(F)(F)F)cc7)cc6)cc5)cc4)c4ccc(-c5nc6c7ccccc7c7ccccc7c6n5-c5ccc(C(F)(F)F)cc5)cc4)cc3)nc3c4ccccc4c4ccccc4c32)cc1`, for which the photoluminescence quantum yield (in ClCCl) was 0.383. Consider `COc1cc(OC)cc(C2=C3C(C)=C(I)C(C)=[N+]3[B-](F)(F)n3c(/C=C/c4c[nH]c5ccccc45)c(I)c(C)c32)c1`, for which the photoluminescence quantum yield was found to be 0.2 (in C1CCOC1), 0.17 (in CS(C)=O) and 0.19 (in ClCCl). Where the note is “in ClC(Cl)Cl”, `CCCCc1cc(-c2cccc(COC)c2)oc1-c1cccc(-c2cc(CCCC)c(-c3cccc(-c4cc(CCCC)c(-c5cccc(-c6oc(-c7cccc(-c8oc(-c9cccc(-c%10oc(-c%11cccc(COC)c%11)cc%10CCCC)c9)cc8CCCC)c7)cc6CCCC)c5)o4)c3)o2)c1` displayed a photoluminescence quantum yield of 0.54. Under “in ClCCl”, `c1ccc(-c2cc3cc4ccccc4cc3p2-c2ccccc2)cc1` (stereo unspecified) had a photoluminescence quantum yield of 0.035. Molecule `Cc1c(COC(=O)c2ccccc2Br)n2c(OCC(=O)c3ccccc3Br)c(C)c(=O)n2c1=O` had a photoluminescence quantum yield (in CCO) of 0.841. Regarding `COC(=O)c1ccc(O)c(-c2[nH]c(=O)n3c2-c2ccccc2C3=O)c1`, the photoluminescence quantum yield (in CC#N) worked out at 0.46, the photoluminescence quantum yield (in CO) was 0.35 and the photoluminescence quantum yield (in ClCCl) came out at 0.86.

For the molecule `COc1ccc(C2=C(Br)C(c3ccccc3)=[N+]3C2=Nc2c(-c4ccc(OC)cc4)c(Br)c(-c4ccccc4)n2[B-]3(F)F)cc1`, the photoluminescence quantum yield (in Cc1ccccc1) stood at 0.01. For the molecule `Brc1ccc(-c2nc(-c3ccc(-c4nc(-c5ccc(Br)cc5)c(-c5ccc(Br)cc5)[nH]4)cc3)[nH]c2-c2ccc(Br)cc2)cc1`, under “in CS(C)=O”, the photoluminescence quantum yield turned out to be 0.49. On to `C(=C\c1cc(/C=C/c2ccc(N(c3ccccc3)c3ccccc3)cc2)ncn1)/c1ccc(N(c2ccccc2)c2ccccc2)cc1`, for which the photoluminescence quantum yield (in ClCCl) came to 0.55. As for `CC(=O)c1ccc(-c2ccc3c(c2)C(=O)c2cc(-c4ccc(C(C)=O)cc4)ccc2-3)cc1`, for the setting “in C1CCOC1”, the photoluminescence quantum yield was 0.03. As to `c1cc2c3c(cccc3c1)NC(c1ccc3ccc4cccc5ccc1c3c45)N2`, the photoluminescence quantum yield is, setting by setting: (in CC#N) 0.24; (in CO) 0.05; (in CS(C)=O) 0.08; (in Cc1ccccc1) 0.51. As for `COc1ccc(C#Cc2ccc3nc4ccc(C#Cc5ccc(OC)cc5)cn4c(=O)c3c2)cc1`, the photoluminescence quantum yield (in ClCCl) is 0.52.

For `CN(C)c1ccc(C2=Nc3scc(-c4ccccc4)[n+]3[B-](F)(F)O2)cc1`, the photoluminescence quantum yield is, setting by setting: (in C1CCOC1) 0.75; (in CC#N) 0.08; (in Cc1ccccc1) 0.94; (in ClCCl) 0.89. Regarding `COC(=O)c1cc2c(cc3ccc4cccc5ccc2c3c45)[nH]1`, for the setting “in C1CCOC1”, the photoluminescence quantum yield came to 0.82. `Cc1ccc(-c2c3nc(c(-c4ccc(C)cc4)c4ccc([nH]4)c(-c4ccc(OC(=O)C(C)c5ccc(-c6ccccc6)c(F)c5)cc4)c4nc(c(-c5ccc(C)cc5)c5ccc2[nH]5)C=C4)C=C3)cc1` (stereo unspecified) showed a photoluminescence quantum yield (in ClCCl) of 0.131. For the setting “in c1ccccc1”, `CCOC(=O)c1sc2nc(-c3ccc(OC)cc3)c(C)c(C#N)c2c1N` returned a photoluminescence quantum yield of 0.064. The molecule `CCCCCOc1cc2oc(=O)c3c4ccc(O)cc4c4ccc5cccc6c(c1)c2c3c4c56` returned a photoluminescence quantum yield (in C1CCOC1) of 0.27. `CC(C)[Si](C#Cc1c2cc3ccccc3cc2c(C#C[Si](C(C)C)(C(C)C)C(C)C)c2nc3c(nc12)Cc1ccccc1-3)(C(C)C)C(C)C` returned a photoluminescence quantum yield (in CCCCCC) of 0.15. Take `CC(C)(C)c1cc(-c2ccc(-c3cc(C(C)(C)C)cc(C(C)(C)C)c3)cc2)cc(C(C)(C)C)c1`: the photoluminescence quantum yield (in C1COCCO1) came out at 0.58. Consider `CCN1/C(=C/C=C/C2=[N+](C)c3ccccc3C2(C)C)C(C)(C)c2ccccc21`, for which the photoluminescence quantum yield (in CS(C)=O) amounted to 0.07. Take `COc1c2ccccc2c(OC)c2c1c1ccc(C(F)(F)F)cc1n2C`: the photoluminescence quantum yield runs as follows: (in C1CCCCC1) 0.35; (in CC#N) 0.39; (in CO) 0.26; (in ClCCl) 0.36.

For `O=S1(=O)c2ccccc2-c2cc(-c3c4ccccc4cc4ccccc34)ccc21`, the photoluminescence quantum yield runs as follows: (in C1CCCCC1) 0.36; (in CC#N) 0.14; (in ClCCl) 0.24. `CCOC(=O)C(C(=O)OCC)C1=[N+]2C(=C(c3ccc(C)cc3)c3ccc(C(C(=O)OCC)C(=O)OCC)n3[B-]2(F)F)C=C1`: the photoluminescence quantum yield reads like this: (in C1CCCCC1) 0.62; (in C1CCOC1) 0.46; (in CCOC(C)=O) 0.38; (in CO) 0.35; (in Cc1ccccc1) 0.89; (in ClC(Cl)Cl) 0.59. For `C1=[N+](c2ccccc2)[B-]2(Oc3c1ccc1c4c(ccc31)C=[N+](c1ccccc1)[B-]1(O4)c3ccccc3Oc3ccccc31)c1ccccc1Oc1ccccc12`, the photoluminescence quantum yield is 0.77 (in Cc1ccccc1) and 0.81 (in ClCCl). `Cc1c(COC(=O)Cc2c[nH]c3ccccc23)n2c(OCC(=O)Cc3c[nH]c4ccccc34)c(C)c(=O)n2c1=O` returned a photoluminescence quantum yield (in CCO) of 0.715. Regarding `c1ccc(-c2ccc3c(c2)c2cc(-c4ccccc4)ccc2n3-c2ccc3c(c2)c2cc(-n4c5ccc(-c6ccccc6)cc5c5cc(-c6ccccc6)ccc54)ccc2n3-c2ccc(-c3nc(-c4ccccc4)nc(-c4ccccc4)n3)cc2)cc1`, the photoluminescence quantum yield (in Cc1ccccc1) was determined as 0.74. In the case of `CCN(CC)c1ccc2cc(C#N)/c(=N\C(C)=O)oc2c1`, the photoluminescence quantum yield is, setting by setting: (in CCO) 0.15; (in ClCCl) 0.8. Consider `c1csc(-c2c3ccc(=[N+]4CCCCC4)cc-3oc3cc(N4CCCCC4)ccc23)c1`, for which the photoluminescence quantum yield by setting is: (in CCO) 0.1; (in ClCCl) 0.33.

Consider `CC(=O)Nc1ccc(C2=C/C(=C\c3ccc([N+](=O)[O-])cc3)C(=O)O2)cc1`, for which, for the setting “in C1COCCO1”, the photoluminescence quantum yield amounted to 0.043. Turning to `COc1ccc(-n2nc(C#N)c(N3CCCCCC3)n2)cc1`, the photoluminescence quantum yield (in CC#N) was 0.98.

Molecule `C[Si]1(C)c2cc(-c3cccs3)ccc2C=Cc2ccc(-c3cccs3)cc21` returned a photoluminescence quantum yield (in ClCCl) of 0.77. As to `N#Cc1ccc(-n2nc(C#N)c(N3CCCC3)n2)cc1`, the photoluminescence quantum yield (in CC#N) came to 0.579.

Take `CC(C)(C)c1ccc(-c2c(-c3ccc(N(c4ccccc4)c4ccccc4)cc3)cc(-c3ccc(N(c4ccccc4)c4ccccc4)cc3)c(-c3ccc(C(C)(C)C)cc3)c2-c2ccc(C(C)(C)C)cc2)cc1`: the photoluminescence quantum yield (in C1CCOC1) turned out to be 0.587. Consider `O=C1c2cccc3c(-n4c5ccccc5c5ccccc54)ccc(c23)C(=O)N1C1CCCCC1`, for which the photoluminescence quantum yield (in C1CCOC1) was 0.033, the photoluminescence quantum yield (in CCCCCC) was 0.872, the photoluminescence quantum yield (in ClC(Cl)Cl) turned out to be 0.21 and the photoluminescence quantum yield (in ClCCl) was found to be 0.03. Take `COc1ccc([Si](C)(C)C)c2ccccc12`: the photoluminescence quantum yield (in C1CCCCC1) was found to be 0.65. With `CCCCCCCCCCCCN1C(=O)c2cccc3c(N(Cc4ccccn4)Cc4ccccn4)c4ccccc4c(c23)C1=O`, the photoluminescence quantum yield runs as follows: (in C1CCOC1) 0.07; (in CCCCCC) 0.06; (in CCO) 0.1; (in Cc1ccccc1) 0.06; (in ClCCl) 0.12.

`CCc1c(C)c2n(c1C)[B-](F)(F)[N+]1=C(C=C3C=Cc4ccccc43)C=CC1=C2C` yielded a photoluminescence quantum yield (in C1CCCCC1) of 0.02. Regarding `CC(C)(C)Nc1cc2oc3cc(NC(C)(C)C)c(F)cc3c(=O)c2cc1F`, the photoluminescence quantum yield (in CCO) was found to be 0.31.

For `CCCCCc1c(C)c2c3ccccc3[nH]c2c2ccccc12`, the photoluminescence quantum yield (in ClCCl) turned out to be 0.167.
